Species: Rattus norvegicus
Assay: DrugMatrix - Regimen: Daily Repeat
Assay type: toxicity, organism-based, Sprague-Dawley
Parameters: regimen Daily Repeat, gender Male, age 6-8 weeks
Conditions: in vivo, po, route oral GAVAGE, vehicle 100 % WATER; for ABSOLUTE BASOPHIL / ABSOLUTE EOSINOPHIL / ABSOLUTE LYMPHOCYTE / ABSOLUTE MONOCYTE / ABSOLUTE SEGMENTED NEUTROPHIL / BASOPHIL / EOSINOPHIL / ERYTHROCYTE COUNT / HEMATOCRIT / HEMOGLOBIN / LEUKOCYTE COUNT / LYMPHOCYTE / MEAN CORPUSCULAR HEMOGLOBIN / MEAN CORPUSCULAR HEMOGLOBIN CONCENTRATION / MEAN CORPUSCULAR VOLUME / MONOCYTE / NEUTROPHIL / NUCLEATED RED BLOOD CELLS / PLATELET COUNT: tissue Blood; for ALANINE AMINOTRANSFERASE / ALBUMIN / ALKALINE PHOSPHATASE / ASPARTATE AMINOTRANSFERASE / BLOOD UREA NITROGEN / CARBON DIOXIDE / CHLORIDE / CHOLESTEROL / CREATINE PHOSPHOKINASE / CREATININE / GLUCOSE / LACTATE DEHYDROGENASE / LIPASE / PHOSPHORUS / POTASSIUM / SODIUM / TOTAL BILIRUBIN / TOTAL PROTEIN / URIC ACID: tissue Plasma
[1] = 0 mg/kg, 72 h, dose level Control, time 3 day
[2] = 0 mg/kg, 120 h, dose level Control, time 5 day
[3] = 20 mg/kg, 72 h, dose level Low, time 3 day

SMILES: C=CCC1(C(C)CCC)C(=O)NC(=O)NC1=O (centres undefined) [SECOBARBITAL]
- ABSOLUTE BASOPHIL [1]: 0 CELLS/uL
- ABSOLUTE EOSINOPHIL [1]: 32.5 CELLS/uL
- ABSOLUTE LYMPHOCYTE [1]: 9305.83 CELLS/uL
- ABSOLUTE MONOCYTE [1]: 43.83 CELLS/uL
- ABSOLUTE SEGMENTED NEUTROPHIL [1]: 817.83 CELLS/uL
- BASOPHIL [1]: 0%
- EOSINOPHIL [1]: 0.33%
- ERYTHROCYTE COUNT [1]: 5.38 x10E6/uL
- HEMATOCRIT [1]: 33.63%
- HEMOGLOBIN [1]: 13.17 G/DL
- LEUKOCYTE COUNT [1]: 10.2 x10E3/uL
- LYMPHOCYTE [1]: 91.17%
- MEAN CORPUSCULAR HEMOGLOBIN [1]: 24.5 pg
- MEAN CORPUSCULAR HEMOGLOBIN CONCENTRATION [1]: 39.13 G/DL
- MEAN CORPUSCULAR VOLUME [1]: 62.53 fL
- MONOCYTE [1]: 0.5%
- NEUTROPHIL [1]: 8%
- NUCLEATED RED BLOOD CELLS [1]: 0.17 /100WBC
- PLATELET COUNT [1]: 858 x10E3/uL
- ALANINE AMINOTRANSFERASE [1]: 55.67 u/L
- ALBUMIN [1]: 4.07 G/DL
- ALKALINE PHOSPHATASE [1]: 337 u/L
- ASPARTATE AMINOTRANSFERASE [1]: 84 u/L
- BLOOD UREA NITROGEN [1]: 13.17 mg/dL
- CARBON DIOXIDE [1]: 34.17 mmol/L
- CHLORIDE [1]: 99.33 MEQ/L
- CHOLESTEROL [1]: 78.83 mg/dL
- CREATINE PHOSPHOKINASE [1]: 576.83 u/L
- CREATININE [1]: 0.17 mg/dL
- GLUCOSE [1]: 152.67 mg/dL
- LACTATE DEHYDROGENASE [1]: 147.83 u/L
- LIPASE [1]: 9.5 u/L
- PHOSPHORUS [1]: 10.78 mg/dL
- POTASSIUM [1]: 6.34 MEQ/L
- SODIUM [1]: 144.12 MEQ/L
- TOTAL BILIRUBIN [1]: 0.18 mg/dL
- TOTAL PROTEIN [1]: 6.08 G/DL
- URIC ACID [1]: 0.65 mg/dL
- ABSOLUTE BASOPHIL [2]: 0 CELLS/uL
- ABSOLUTE EOSINOPHIL [2]: 31.17 CELLS/uL
- ABSOLUTE LYMPHOCYTE [2]: 7918.33 CELLS/uL
- ABSOLUTE MONOCYTE [2]: 58.33 CELLS/uL
- ABSOLUTE SEGMENTED NEUTROPHIL [2]: 725.5 CELLS/uL
- BASOPHIL [2]: 0%
- EOSINOPHIL [2]: 0.33%
- ERYTHROCYTE COUNT [2]: 5.32 x10E6/uL
- HEMATOCRIT [2]: 33.53%
- HEMOGLOBIN [2]: 13.17 G/DL
- LEUKOCYTE COUNT [2]: 8.73 x10E3/uL
- LYMPHOCYTE [2]: 90.33%
- MEAN CORPUSCULAR HEMOGLOBIN [2]: 24.82 pg
- MEAN CORPUSCULAR HEMOGLOBIN CONCENTRATION [2]: 39.33 G/DL
- MEAN CORPUSCULAR VOLUME [2]: 63.12 fL
- MONOCYTE [2]: 0.67%
- NEUTROPHIL [2]: 8.67%
- NUCLEATED RED BLOOD CELLS [2]: 0 /100WBC
- PLATELET COUNT [2]: 1144.83 x10E3/uL
- ALANINE AMINOTRANSFERASE [2]: 60.5 u/L
- ALBUMIN [2]: 3.97 G/DL
- ALKALINE PHOSPHATASE [2]: 343.17 u/L
- ASPARTATE AMINOTRANSFERASE [2]: 80.83 u/L
- BLOOD UREA NITROGEN [2]: 15 mg/dL
- CARBON DIOXIDE [2]: 31 mmol/L
- CHLORIDE [2]: 99.75 MEQ/L
- CHOLESTEROL [2]: 71.5 mg/dL
- CREATINE PHOSPHOKINASE [2]: 237.17 u/L
- CREATININE [2]: 0.17 mg/dL
- GLUCOSE [2]: 137 mg/dL
- LACTATE DEHYDROGENASE [2]: 146.17 u/L
- LIPASE [2]: 11.5 u/L
- PHOSPHORUS [2]: 10.13 mg/dL
- POTASSIUM [2]: 6 MEQ/L
- SODIUM [2]: 145 MEQ/L
- TOTAL BILIRUBIN [2]: 0.13 mg/dL
- TOTAL PROTEIN [2]: 5.82 G/DL
- URIC ACID [2]: 0.62 mg/dL
- ABSOLUTE BASOPHIL [3]: 0 CELLS/uL
- ABSOLUTE EOSINOPHIL [3]: 51.33 CELLS/uL
- ABSOLUTE LYMPHOCYTE [3]: 9158 CELLS/uL
- ABSOLUTE MONOCYTE [3]: 51.33 CELLS/uL
- ABSOLUTE SEGMENTED NEUTROPHIL [3]: 572.67 CELLS/uL
- BASOPHIL [3]: 0%
- EOSINOPHIL [3]: 0.67%
- ERYTHROCYTE COUNT [3]: 5.3 x10E6/uL
- HEMATOCRIT [3]: 33.23%
- HEMOGLOBIN [3]: 12.87 G/DL
- LEUKOCYTE COUNT [3]: 9.83 x10E3/uL
- LYMPHOCYTE [3]: 93%
- MEAN CORPUSCULAR HEMOGLOBIN [3]: 24.27 pg
- MEAN CORPUSCULAR HEMOGLOBIN CONCENTRATION [3]: 38.7 G/DL
- MEAN CORPUSCULAR VOLUME [3]: 62.83 fL
- MONOCYTE [3]: 0.67%
- NEUTROPHIL [3]: 5.67%
- NUCLEATED RED BLOOD CELLS [3]: 0 /100WBC
- PLATELET COUNT [3]: 930.33 x10E3/uL
- ALANINE AMINOTRANSFERASE [3]: 63 u/L
- ALBUMIN [3]: 4.2 G/DL
- ALKALINE PHOSPHATASE [3]: 397.67 u/L
- ASPARTATE AMINOTRANSFERASE [3]: 98.33 u/L
- BLOOD UREA NITROGEN [3]: 13.33 mg/dL
- CARBON DIOXIDE [3]: 35 mmol/L
- CHLORIDE [3]: 99 MEQ/L
- CHOLESTEROL [3]: 83.33 mg/dL
- CREATINE PHOSPHOKINASE [3]: 496 u/L
- CREATININE [3]: 0.16 mg/dL
- GLUCOSE [3]: 140.67 mg/dL
- LACTATE DEHYDROGENASE [3]: 160.33 u/L
- LIPASE [3]: 9.67 u/L
- PHOSPHORUS [3]: 11.03 mg/dL
- POTASSIUM [3]: 6.51 MEQ/L
- SODIUM [3]: 143.6 MEQ/L
- TOTAL BILIRUBIN [3]: 0.2 mg/dL
- TOTAL PROTEIN [3]: 6.1 G/DL
- URIC ACID [3]: 0.83 mg/dL
